Molecules are shown by their SMILES.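 Where inhibition never reached the appropriate level, the endpoint shown equals the highest concentration tested. Otherwise, values were interpolated linearly from a five-concentration, 48-hour dose response in 96-well plates. At the GI50, growth is halved. TGI marks complete inhibition of growth.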 A value given as a limit tells only on which side of the number the result lay.

Among the test systems are UO-31 renal; HOP-92 NSCLC; M14 melanoma; NCI-H460 lung; UACC-62 melanoma; DU-145 prostate; RPMI-8226 leukemia; HT29 colon; PC-3 prostate; COLO 205 colon.
What all share (test): NCI anticancer screen, dose series, 48 h

Take `O=C1C=CC(=O)N1c1ccc2c(c1)Cc1cc(NC(=O)C(F)(F)F)ccc1-2`: the TGI is 28.4 µM in the assay with UO-31 renal; 33.1 µM with HOP-92 NSCLC; 44 µM in the assay on M14 melanoma; > 100 µM in the assay on NCI-H460 lung; 30.7 µM in the assay on UACC-62 melanoma; 30.5 µM in the assay on DU-145 prostate. In addition, the TGI with RPMI-8226 leukemia worked out at 14.3 µM; with HT29 colon, 25.5 µM; in the assay on PC-3 prostate, 33.1 µM; in the assay on COLO 205 colon, 26 µM.
As to `CC1(C)CC2=NOS3=C2C(=NO3)C1c1ccccn1` (stereo not given), the TGI in the assay on UO-31 renal, in the assay on HOP-92 NSCLC, in the assay on M14 melanoma, with NCI-H460 lung, in the assay with UACC-62 melanoma and with DU-145 prostate was > 100 µM throughout. In addition, the TGI in the assay with RPMI-8226 leukemia was > 100 µM; in the assay with HT29 colon, > 100 µM; with PC-3 prostate, > 100 µM; in the assay with COLO 205 colon, 80.5 µM.
For `N#C/C(=C\c1ccc(Cl)cc1)n1nnc2cc(F)c(F)cc21`, the GI50 is 1.55 µM in the assay with UO-31 renal; 1.07 µM in the assay with HOP-92 NSCLC; 1.9 µM with M14 melanoma; 2.17 µM in the assay on NCI-H460 lung; 1.8 µM in the assay with UACC-62 melanoma; 1.69 µM in the assay on DU-145 prostate. For the same compound, the GI50 was 1.39 µM in the assay with RPMI-8226 leukemia, 2.5 µM with HT29 colon, 1.61 µM in the assay with PC-3 prostate and 2.18 µM in the assay with COLO 205 colon. For the same compound, the TGI came to 2.88 µM in the assay on UO-31 renal; 2.56 µM in the assay on HOP-92 NSCLC; 4.39 µM in the assay with M14 melanoma; 4.86 µM in the assay on NCI-H460 lung; 3.96 µM in the assay with UACC-62 melanoma; 3.11 µM with DU-145 prostate. In addition, the TGI in the assay with RPMI-8226 leukemia amounted to 5.29 µM; in the assay on HT29 colon, 5.61 µM; in the assay with PC-3 prostate, 3.53 µM; in the assay with COLO 205 colon it was 4.83 µM.
As for `Cc1cc(S(=O)(=O)/N=C(\N)n2nc(C)c(C)c2C)c(SCc2ccccc2)cc1Cl`, the GI50 in the assay on UO-31 renal is 4.57 µM; in the assay with HOP-92 NSCLC it was 3.17 µM; in the assay on M14 melanoma it was > 100 µM; with NCI-H460 lung, 6.57 µM; in the assay on UACC-62 melanoma, > 100 µM; in the assay on DU-145 prostate it was > 100 µM. The GI50 in the assay on RPMI-8226 leukemia was 2.9 µM; in the assay on HT29 colon, > 100 µM; in the assay on PC-3 prostate it was 6.04 µM; with COLO 205 colon, 74 µM. For the same compound, the TGI with UO-31 renal, in the assay with HOP-92 NSCLC, in the assay on M14 melanoma, with NCI-H460 lung, in the assay with UACC-62 melanoma and in the assay on DU-145 prostate was > 100 µM throughout. The TGI in the assay on RPMI-8226 leukemia, in the assay on HT29 colon, with PC-3 prostate and in the assay with COLO 205 colon was > 100 µM in each case.
Regarding `O=C(c1cccs1)c1c(C(F)(F)F)n([O-])c2cc(C(F)(F)F)ccc2[n+]1=O`, the GI50 with UO-31 renal was 0.315 µM; in the assay on HOP-92 NSCLC it was 0.172 µM; in the assay on M14 melanoma it was 0.554 µM; with NCI-H460 lung it was 0.198 µM; in the assay on UACC-62 melanoma it was 0.462 µM; in the assay with DU-145 prostate, 0.179 µM. Further, the GI50 with RPMI-8226 leukemia is 0.211 µM; in the assay with HT29 colon it was 0.193 µM; in the assay with PC-3 prostate, 0.136 µM; in the assay with COLO 205 colon, 0.174 µM. Besides, the TGI is 0.656 µM in the assay with UO-31 renal; 0.342 µM with HOP-92 NSCLC; 1.19 µM in the assay on M14 melanoma; 0.512 µM in the assay with NCI-H460 lung; 1.28 µM in the assay with UACC-62 melanoma; 0.326 µM with DU-145 prostate. For the same compound, the TGI in the assay on RPMI-8226 leukemia is 0.59 µM; in the assay on HT29 colon, 0.419 µM; in the assay with PC-3 prostate, 0.281 µM; in the assay on COLO 205 colon, 0.362 µM.
Take `OCC1OC(O)C(N=Cc2ccc3c(c2)OCO3)C(O)C1O` (stereo not given): the TGI in the assay on UO-31 renal, in the assay with HOP-92 NSCLC, in the assay with M14 melanoma, in the assay with NCI-H460 lung, in the assay with UACC-62 melanoma and in the assay on DU-145 prostate was > 100 µM each time. Moreover, the TGI in the assay with RPMI-8226 leukemia, in the assay on HT29 colon, in the assay with PC-3 prostate and with COLO 205 colon was > 100 µM in each case.
For the compound `Cc1ccc(-c2nc3nc(-c4ccc(Cl)cc4)nc(N4CCCNCC4)c3o2)cc1`, the GI50 was 1.3 µM with UO-31 renal; 1.36 µM with HOP-92 NSCLC; 1.75 µM in the assay on M14 melanoma; 1.93 µM in the assay on NCI-H460 lung; 1.74 µM in the assay with UACC-62 melanoma; 1.95 µM in the assay with DU-145 prostate. The GI50 in the assay on RPMI-8226 leukemia is 2.11 µM; in the assay with HT29 colon it was 1.93 µM; in the assay on PC-3 prostate, 1.6 µM; in the assay on COLO 205 colon it was 2.08 µM. Besides, the TGI in the assay with UO-31 renal amounted to 2.62 µM; with HOP-92 NSCLC, 2.91 µM; in the assay on M14 melanoma, 3.34 µM; in the assay with NCI-H460 lung it was 3.76 µM; in the assay on UACC-62 melanoma, 3.24 µM; with DU-145 prostate, 3.59 µM. In addition, the TGI with RPMI-8226 leukemia amounted to 4.74 µM; with HT29 colon it was 3.94 µM; in the assay with PC-3 prostate it was 3.14 µM; with COLO 205 colon, 4.26 µM.
With `CCC(=O)Nc1ccc2c(c1)CN1C(=O)c3ccccc3C1=N2`, the GI50 in the assay on UO-31 renal, with HOP-92 NSCLC, in the assay on M14 melanoma, in the assay on NCI-H460 lung, in the assay on UACC-62 melanoma and in the assay on DU-145 prostate was > 100 µM throughout. Also, the GI50 in the assay with RPMI-8226 leukemia, with HT29 colon, with PC-3 prostate and with COLO 205 colon was > 100 µM in each case. Moreover, the TGI in the assay on UO-31 renal, with HOP-92 NSCLC, in the assay on M14 melanoma, in the assay on NCI-H460 lung, in the assay with UACC-62 melanoma and in the assay with DU-145 prostate was > 100 µM each time. The TGI with RPMI-8226 leukemia, in the assay with HT29 colon, with PC-3 prostate and in the assay on COLO 205 colon was > 100 µM throughout.

Source of the values: PubChem BioAssay (NCI).
